Reference: US9023821B2, “Use of MicroRNA for treating diseases associated with a dysfunction of the cilia in multiciliated epithelial cells” (Centre National de la Recherche Scientifique, priority 2009, dated 2015)

What was measured:
[1] = tested on: basal cells and pyramidal cells of the airway epithelium; experiment: miRNA expression in sorted basal cells versus pyramidal cells (ciliated + secretory), HTS and Agilent chips; parameters: species or system human; settings: for Modulation of expression of the miRNAs in pyramidal cells (323(−)) relative to basal cells 323(+): HTS and Agilent chips; for Intensity of the level of expression in log2 in pyramidal cells (323(−)): pyramidal cells (ciliated + secretory)
How it was run: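 Read-out is miRNA profiling of total RNA, by Agilent chips or by high-throughput sequencing, in two sorted populations. These were basal cells (CD151+/TF+) and pyramidal ciliated/secretory cells (CD151−/TF−) from airway epithelium of 3 donors.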

[2] = tested on: human airway epithelial cells (HAECs); experiment: High-throughput sequencing (HTS) of miRNAs at four stages of differentiation of HAECs; settings: for Modulation (ratio of the level of intensity of expression in log2 in two stages of differentiation) measured by high-throughput sequencing, D7 − D0 / Modulation (ratio of the level of intensity of expression in log2 in two stages of differentiation) measured by high-throughput sequencing, FC − D7 / Modulation (ratio of the level of intensity of expression in log2 in two stages of differentiation) measured by high-throughput sequencing, WD − D0 / Modulation (ratio of the level of intensity of expression in log2 in two stages of differentiation) measured by high-throughput sequencing, WD − FC / Level of intensity of expression in log2 measured by high-throughput sequencing, D0 / Level of intensity of expression in log2 measured by high-throughput sequencing, D7 / Level of intensity of expression in log2 measured by high-throughput sequencing, FC / Level of intensity of expression in log2 measured by high-throughput sequencing, WD: Table VI; for Modulation (ratio of the level of intensity of expression in log2 in two stages of differentiation), D7 − D0 / Modulation (ratio of the level of intensity of expression in log2 in two stages of differentiation), FC − D7 / Modulation (ratio of the level of intensity of expression in log2 in two stages of differentiation), WD − FC / Abundance (%), D0 / Abundance (%), D7 / Abundance (%), FC / Abundance (%), WD: HTS; for Abundance (%), D0: ALI-D0; for Abundance (%), D7: ALI-D7; for Abundance (%), FC: ALI-FC; for Abundance (%), WD: ALI-WD; for Level of intensity of expression in log2 At the differentiated stage (WD) measured in HTS: healthy human airway epithelial tissue; for Level of intensity of expression in log2 measured by high-throughput sequencing, D0: stage D0; for Level of intensity of expression in log2 measured by high-throughput sequencing, D7: stage D7; for Level of intensity of expression in log2 measured by high-throughput sequencing, FC: stage FC; for Level of intensity of expression in log2 At the differentiated stage (WD) measured in HTS / Level of intensity of expression in log2 measured by high-throughput sequencing, WD: stage WD
How it was run: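 Cells at four air-liquid interface differentiation stages were lysed and total RNA with miRNAs purified. Adaptor Mix A or B ligation (16° C, 2-16 h) allowed 5′ or 3′ end sequencing. Abundance cut-off was 1% of total miRNAs in at least one stage.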

[3] = tested on: human airway epithelial cells (HAECs); experiment: Agilent miRNA chips, miRNA expression at four stages of differentiation of HAECs; settings: for Modulation (ratio of the level of intensity of expression in log2 in two stages of differentiation) measured with the Agilent chips, D7 − D0 / Modulation (ratio of the level of intensity of expression in log2 in two stages of differentiation) measured with the Agilent chips, FC − D7 / Modulation (ratio of the level of intensity of expression in log2 in two stages of differentiation) measured with the Agilent chips, WD − D0 / Modulation (ratio of the level of intensity of expression in log2 in two stages of differentiation) measured with the Agilent chips, WD − FC / Level of intensity of expression in log2 measured with the Agilent chips, D0 / Level of intensity of expression in log2 measured with the Agilent chips, D7 / Level of intensity of expression in log2 measured with the Agilent chips, FC / Level of intensity of expression in log2 measured with the Agilent chips, WD: Table VI; for Modulation (ratio of the level of intensity of expression in log2 at two stages of differentiation), FC − D7 / Modulation (ratio of the level of intensity of expression in log2 at two stages of differentiation), WD − FC: Agilent miRNA chips, Table V; for Level of intensity of expression in log2 measured with the Agilent chips, D0: stage D0; for Level of intensity of expression in log2 measured with the Agilent chips, D7: stage D7; for Level of intensity of expression in log2 measured with the Agilent chips, FC: stage FC; for Level of intensity of expression in log2 measured with the Agilent chips, WD: stage WD
How it was run: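 Expression was profiled on Human miRNA Microarray v2 chips covering 866 human and 89 human viral miRNAs from miRBase v12.0. Labelled HAEC RNA came from the same patients used for sequencing and was hybridized per kit protocol. Chip and sequencing results were compared.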

Substance	Modulation of expression of the miRNAs in pyramidal cells (323(−)) relative to basal cells 323(+) [1]	Intensity of the level of expression in log2 in basal cells (323(+)) [1]	Intensity of the level of expression in log2 in pyramidal cells (323(−)) [1]	Modulation (ratio of the level of intensity of expression in log2 in two stages of differentiation) measured by high-throughput sequencing, D7 − D0 [2]	Modulation (ratio of the level of intensity of expression in log2 in two stages of differentiation) measured by high-throughput sequencing, FC − D7 [2]	Modulation (ratio of the level of intensity of expression in log2 in two stages of differentiation) measured by high-throughput sequencing, WD − D0 [2]	Modulation (ratio of the level of intensity of expression in log2 in two stages of differentiation) measured by high-throughput sequencing, WD − FC [2]	Level of intensity of expression in log2 At the differentiated stage (WD) measured in HTS [2]	Level of intensity of expression in log2 measured by high-throughput sequencing, D0 [2]	Level of intensity of expression in log2 measured by high-throughput sequencing, D7 [2]	Level of intensity of expression in log2 measured by high-throughput sequencing, FC [2]	Level of intensity of expression in log2 measured by high-throughput sequencing, WD [2]	Modulation (ratio of the level of intensity of expression in log2 in two stages of differentiation) measured with the Agilent chips, D7 − D0 [3]	Modulation (ratio of the level of intensity of expression in log2 in two stages of differentiation) measured with the Agilent chips, FC − D7 [3]	Modulation (ratio of the level of intensity of expression in log2 in two stages of differentiation) measured with the Agilent chips, WD − D0 [3]	Modulation (ratio of the level of intensity of expression in log2 in two stages of differentiation) measured with the Agilent chips, WD − FC [3]	Level of intensity of expression in log2 measured with the Agilent chips, D0 [3]	Level of intensity of expression in log2 measured with the Agilent chips, D7 [3]	Level of intensity of expression in log2 measured with the Agilent chips, FC [3]	Level of intensity of expression in log2 measured with the Agilent chips, WD [3]	further results
hsa-miR-193b: human miRNA, SEQ ID No. 14 (AACUGGCCCUCAAAGUCCCGCU; expressed or natural sequence; listed as Homo sapiens)	−3.57	3.90 log2	0.33 log2	−1.17 log2	−0.90 log2	−1.60 log2	0.48 log2	11.67 log2	13.26 log2	12.09 log2	11.19 log2	11.67 log2	−0.67 log2	−1.19 log2	−1.93 log2	−0.07 log2	8.62 log2	7.95 log2	6.76 log2	6.69 log2	cell type in which the miRNA is specifically expressed ([1]; sorted ciliated/pyramidal versus basal cells): more specific to the basal cells; Modulation (ratio of the level of intensity of expression in log2 in two stages of differentiation), D7 − D0 [2]: −1.17 log2; Modulation (ratio of the level of intensity of expression in log2 in two stages of differentiation), FC − D7 [2]: −0.90 log2; Modulation (ratio of the level of intensity of expression in log2 in two stages of differentiation), WD − FC [2]: 0.48 log2; Abundance (%), D0 [2]: 2.16%; Abundance (%), D7 [2]: 0.96%; Abundance (%), FC [2]: 0.50%; Abundance (%), WD [2]: 0.52%; Modulation (ratio of the level of intensity of expression in log2 at two stages of differentiation), FC − D7 [3]: −1.19 log2; Modulation (ratio of the level of intensity of expression in log2 at two stages of differentiation), WD − FC [3]: −0.07 log2
hsa-miR-92b: human miRNA, SEQ ID No. 49 (UAUUGCACUCGUCCCGGCCUCC; expressed or natural sequence; listed as Homo sapiens)	1.67	0.40 log2	2.07 log2	1.21 log2	4.12 log2	5.93 log2	0.60 log2	0.01 log2	7.49 log2	8.70 log2	12.82 log2	13.42 log2	0.48 log2	4.21 log2	4.39 log2	−0.29 log2	0.10 log2	0.57 log2	4.78 log2	4.49 log2	Modulation (ratio of the level of intensity of expression in log2 in two stages of differentiation), D7 − D0 [2]: 1.21 log2; Modulation (ratio of the level of intensity of expression in log2 in two stages of differentiation), FC − D7 [2]: 4.12 log2; Modulation (ratio of the level of intensity of expression in log2 in two stages of differentiation), WD − FC [2]: 0.60 log2; Abundance (%), D0 [2]: 0.04%; Abundance (%), D7 [2]: 0.09%; Abundance (%), FC [2]: 1.54%; Abundance (%), WD [2]: 1.77%
hsa-miR-181a: human miRNA, SEQ ID No. 12 (AACAUUCAACGCUGUCGGUGAGU; expressed or natural sequence; listed as Homo sapiens)	−2.29	6.88 log2	4.59 log2	0.00 log2	0.00 log2	0.00 log2	0.00 log2	0.01 log2	0.01 log2	0.01 log2	0.01 log2	0.01 log2	1.41 log2	−0.84 log2	0.20 log2	−0.37 log2	7.05 log2	8.47 log2	7.62 log2	7.25 log2	Modulation (ratio of the level of intensity of expression in log2 at two stages of differentiation), FC − D7 [3]: −0.84 log2; Modulation (ratio of the level of intensity of expression in log2 at two stages of differentiation), WD − FC [3]: −0.37 log2
